Measured values published in PubChem BioAssay (NCI).
Several values for one entry are separate records, joined by “and”; a condition that tells them apart may be missing. Equal entries are not always repeated.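 Method: 48-hour compound exposure of cells in 96-well plates, five concentrations, linear interpolation of endpoints. GI50 = concentration required for 50% inhibition of growth. TGI marks complete inhibition of growth.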

What was measured:
Assay in all cases: NCI tumour cell line growth inhibition, 48 h
[1] = tested on: UACC-62 melanoma
[2] = tested on: DU-145 prostate
[3] = tested on: SF-295 CNS
[4] = tested on: KM12 colon
[5] = tested on: IGROV1 ovarian
[6] = tested on: MDA-N
[7] = tested on: MOLT-4 leukemia
[8] = tested on: OVCAR-8 ovarian
[9] = tested on: MDA-MB-231 breast
[10] = tested on: HT29 colon

Structure (SMILES)	TGI [1]	TGI [2]	TGI [3]	TGI [4]	TGI [5]	TGI [6]	TGI [7]	TGI [8]	TGI [9]	TGI [10]	GI50 [1]	GI50 [2]	GI50 [4]	GI50 [5]	GI50 [6]	GI50 [10]
O=C(/C=C(\O)c1ccccc1)/C(=C/C(=O)c1ccccc1)NN=C(c1ccccc1)c1ccccc1	36.7 µM	> 100 µM	> 100 µM	> 100 µM	> 100 µM	> 100 µM	52.5 µM	> 100 µM	> 100 µM	> 100 µM	–	–	–	–	–	–
COc1cc(C(c2cccc3ccccc23)N2C(=O)CCC2C(=O)NCc2ccccc2)cc(OC)c1OC (stereo not given)	> 100 µM	> 100 µM	> 100 µM	> 100 µM	> 100 µM	> 100 µM	> 100 µM	> 100 µM	> 100 µM	> 100 µM	–	–	–	–	–	–
C=C(Br)CNCC(=C)Br	> 100 µM	> 100 µM	> 100 µM	> 100 µM	> 100 µM	> 100 µM	> 100 µM	> 100 µM	> 100 µM	> 100 µM	–	–	–	–	–	–
O=S(=O)(O)c1cc(O)c2c(O)c(N=Nc3cccc4ccccc34)c(S(=O)(=O)O)cc2c1	> 100 µM	> 100 µM	> 100 µM	> 100 µM	> 100 µM	> 100 µM	> 100 µM	> 100 µM	> 100 µM	> 100 µM	–	–	–	–	–	–
Cc1ccc(OCC2OC(n3cnc4c(Cl)ncnc43)CC2Oc2ccc(C)cc2)cc1 (stereo not given)	25.9 µM and > 59 µM	3.65 µM and 28.1 µM	30.2 µM and 38.1 µM	6.57 µM and 42 µM	5.88 µM and 14 µM	11.2 µM and 35.7 µM	12.7 µM and 7.95 µM	24.6 µM and 24.2 µM	17.8 µM and 30.6 µM	3.13 µM and 21.2 µM	9.01 µM and 22.8 µM	1.96 µM and 13.3 µM	2.42 µM and 14.3 µM	2.43 µM and 5.87 µM	4.63 µM and 16.6 µM	1.69 µM and 6.15 µM
O/N=C1\CCc2nonc2\C1=N/Nc1ccccc1	> 100 µM	> 100 µM	> 100 µM	> 100 µM	> 100 µM	> 100 µM	> 100 µM	> 100 µM	> 100 µM	> 100 µM	–	–	–	–	–	–
O=C(O)c1cc(Cl)cc2c1NC1(N2)C(=O)Nc2ccccc21 (stereo not given)	> 100 µM	> 100 µM	> 100 µM	> 100 µM	> 100 µM	> 100 µM	> 100 µM	> 100 µM	> 100 µM	> 100 µM	–	–	–	–	–	–
[N-]=[N+]=NC[C@H]1OCO[C@H](CN=[N+]=[N-])[C@H]2OCCOCCOc3ccccc3OCCOCCO[C@@H]21	> 100 µM	> 100 µM	> 100 µM	> 100 µM	> 100 µM	> 100 µM	> 100 µM	> 100 µM	> 100 µM	> 100 µM	–	–	–	–	–	–
CCn1c2ccc(O)c(C(=O)OC)c2c2cc3ccccc3c(O)c21	> 100 µM	40.8 µM	64.5 µM	33.6 µM	31.2 µM	72.4 µM	73.5 µM	56.9 µM	> 100 µM	56.2 µM	–	–	–	–	–	–
N#Cc1c(Nc2nc3ccccc3s2)c2ccccc2n2c1nc1ccccc12	> 100 µM	> 100 µM	> 100 µM	> 100 µM	> 100 µM	> 100 µM	> 100 µM	> 100 µM	> 100 µM	> 100 µM	–	–	–	–	–	–
O=C1c2ccccc2-c2nc(-c3ccccc3)cc3c2c1nc1ccccc13	9.7 µM	29.6 µM	27.6 µM	50.3 µM	23 µM	3.67 µM	36.4 µM	66.8 µM	59.3 µM	25.9 µM	–	–	–	–	–	–
COC(=O)/C(=C\c1ccco1)P(=O)(OC)OC	> 100 µM	> 100 µM	51.4 µM	> 100 µM	> 100 µM	> 100 µM	> 100 µM	> 100 µM	> 100 µM	69.7 µM	–	–	–	–	–	–
Clc1nc(Nc2nc3ccccc3[nH]2)nc(Cl)c1Cc1ccccc1	> 100 µM	> 100 µM	> 100 µM	> 100 µM	> 100 µM	> 100 µM	> 100 µM	> 100 µM	> 100 µM	> 100 µM	–	–	–	–	–	–
Oc1nc(N/N=C/c2ccccc2)[nH]c1/C=C1\C=Nc2ccccc21	> 100 µM	> 100 µM	> 100 µM	> 100 µM	> 100 µM	> 100 µM	> 100 µM	> 100 µM	> 100 µM	> 100 µM	–	–	–	–	–	–
CC(=O)O[C@H]1CN(S(=O)(=O)c2ccc(C)cc2)C[C@@H]1C1CCCCC1	61.7 µM	> 100 µM	32 µM	36.3 µM	40.9 µM	> 100 µM	62.7 µM	73.2 µM	82.7 µM	84.7 µM	–	–	–	–	–	–
COc1ccc(/C(=N/Nc2nc3ccccc3[nH]2)C(=O)O)cc1	> 100 µM	> 100 µM	> 100 µM	> 100 µM	> 100 µM	> 100 µM	> 100 µM	> 100 µM	> 100 µM	> 100 µM	–	–	–	–	–	–
CN(C)Cc1cc(C(=O)/C=C/c2cccc(Cl)c2)cc(CN(C)C)c1O	22.3 µM	19.2 µM	27 µM	19.7 µM	14.9 µM	10.3 µM	14.1 µM	61.3 µM	8.87 µM	16.6 µM	–	–	–	–	–	–
CC(NNC(=O)c1ccncc1)c1ccc(Cl)c(Cl)c1 (stereo not given)	> 100 µM	> 100 µM	> 100 µM	> 100 µM	> 100 µM	> 100 µM	> 100 µM	> 100 µM	> 100 µM	> 100 µM	–	–	–	–	–	–
COC1=CC(=O)c2c(O)c3c(c(O)c2C1=O)C[C@](C)(O)C[C@@H]3O	4.66 µM	16 µM	11.5 µM	19 µM	17.2 µM	3.35 µM	31.4 µM	15.7 µM	28.3 µM	8.05 µM	–	–	–	–	–	–
COP(=O)(OC)C(NC=O)P(=O)(OC)OC	> 100 µM	> 100 µM	> 100 µM	–	> 100 µM	> 100 µM	> 100 µM	> 100 µM	> 100 µM	> 100 µM	–	–	–	–	–	–
Cc1nn(C(=O)c2ccncc2)c2c1C(c1cccc([N+](=O)[O-])c1)SC(N)=N2 (stereo not given)	> 10 µM	> 10 µM	> 10 µM	> 10 µM	> 10 µM	> 10 µM	> 10 µM	> 10 µM	> 10 µM	> 10 µM	–	–	–	–	–	–
